In publication PMC5589751, “Synthesis, high-throughput screening and pharmacological characterization of β–lactam derivatives as TRPM8 antagonists” (Scientific Reports, 2017):
Where “and” joins values, the source holds several entries; their conditions need not be identical. Equal entries are not always repeated.

Experiments:
Format in all cases: cell-based
TRPM8 = biological target: T1, TRPM8 (Rattus norvegicus, UniProt Q8R455); test: Whole-cell patch clamp in TRPM8-expressing HEK-CR1 cells (menthol, voltage, cold); details: for effect on menthol-evoked TRPM8 current at 1 µM / IC50: 500 µM menthol; for effect on cold-evoked TRPM8 current: cold 16 °C; for IC50: whole cell, ratio P2/P1, read-out: IC50, TRPM8 activity evoked by menthol (patch clamp); for Hill coefficient nH: dose-response against 500 µM menthol
T1 construct: expressed in transfected cells
Description: As depicted in Fig. 3, perfusion with 500 µM menthol activated a large TRPM8 inward current at −60 mV (Fig. 3, control). […] The extent of TRPM8 activity shown in Fig. 3 corresponds to the ratio of channel activity between the second (P2) and the first (P1) pulses (ratio P2/P1) of menthol in order to take into account the channel desensitization (supplementary information Fig. 3S)[36], [37].
Left: Representative whole-cell voltage clamp recordings from TRPM8-expressing HEK-CR1 cells and compound 41 (A) and 45 (B). Voltage was held at −60 mV. Pre-application of compounds (20 s) was followed by co-application with 500 µM menthol (Control) for 20s. Current traces of different colours denote the different concentrations of compounds tested. Right: Dose response of compound 41 (A, red), 45 (B, blue) TRPM8 blocked activity. Solid line depicts the fitting to a Hill equation. Data are given as mean ± SEM, with n > 4 cells per data point.
Figure 4 Compound 41 abolished the voltage-evoked response on TRPM8. (A) Representative families of TRPM8 ionic currents in absence (Control) or presence of 1 μM 41 elicited with a voltage step protocol consisting of 200-ms depolarizing pulses from −60 to +120 mV in steps of 20 mV (inset). Holding potential −60 mV, time between pulses = 5s. (B) I-V relationships of TRPM8 channel activity in the absence (black) and presence of 1 µM 41 (red).
Figure 5 Compound 41 abolished the cold thermal activity response on TRPM8. Left: Representative families of TRPM8 ionic currents at +80mV in absence (A) or presence of 1µM 41 (B) activated by cold temperature (16 °C) obtained with a 300-ms ramp from −80 to +80 mV in intervals of 2 s during 3 minutes. Holding potential −60 mV. Right: I-V relationships of TRPM8 channel in basal conditions (a, black line), activated by cold in the absence (b, green line) and presence of 1 µM 41 (c, blue line). (C) Ratio currents between pulse 2 and pulse 1 induced by menthol in the absence (black bar) or in the presence (blue bar) of compound 41.
(§1) Electrophysiological recording was carried out 1–3 d after cells seeded. Membrane currents and voltages were recorded by patch clamp using the whole-cell configuration. For whole-cell recordings of HEK-hTRPV1 and HEK-TRPM8 cells, pipette solution contained (in mM) 140 CsCl, 5 EGTA, and 10 HEPES, adjusted to pH 7.2 with CsOH, and bath solution contained (in mM) 140 NaCl, 5 KCl, 2 CaCl2, 2 MgCl2, 5 EGTA, 10 D-glucose, 10 Mannitol and 10 HEPES, adjusted to pH 7.4 with NaOH. In calcium-free bath solution, CaCl2 was replaced with 5mM EGTA. For potassium and sodium recordings, CsCl was substituted by KCl and the pH was adjusted to pH 7.2 with KOH. Patch pipettes were prepared from thin-walled borosilicate glass capillaries (World Precision Instruments, Sarasota, FL, USA), pulled with a horizontal puller (P-97, Sutter Instruments, Novato, CA, USA) to have a tip resistance of 2–4 MΩ when filled with internal solutions. Data were sampled at 10 kHz (EPC10 amplifier with PatchMaster 2.53 software, HEKA Electronics, Lambrecht, Germany) and low-pass filtered at 3 kHz for analysis (PatchMaster 2.53 and GraphPad Prism 5, Graphpad Software, USA). The series resistance was <10 MΩ and to minimize voltage errors was compensated to 60–80%. All measurements were performed at 24–25°C. The temperature was adjusted with a water-cooled Peltier device placed at the inlet of the chamber and controlled by a feedback device (Automatic Temperature Controller TC-324B, Warner Instruments). Cold-sensitivity was investigated with a temperature decrease to 16–18 °C.

TRPA1 = TRPA1 (Homo sapiens, UniProt O75762); test: Whole-cell patch clamp in cells expressing TRPA1
Description: Electrophysiological recording was carried out 1-3 d after cells seeded. Membrane currents and voltages were recorded by patch clamp using the whole-cell configuration. […] In calcium-free bath solution, CaCl2 was replaced with 5mM EGTA. For potassium and sodium recordings, CsCl was substituted by KCl and the pH was adjusted to pH 7.2 with KOH. Patch pipettes were prepared from thin-walled borosilicate glass capillaries (World Precision Instruments, Sarasota, FL, USA), pulled with a horizontal puller (P-97, Sutter Instruments, Novato, CA, USA) to have a tip resistance of 2-4 MΩ when filled with internal solutions. Data were sampled at 10 kHz (EPC10 amplifier with PatchMaster 2.53 software, HEKA Electronics, Lambrecht, Germany) and low-pass filtered at 3 kHz for analysis (PatchMaster 2.53 and GraphPad Prism 5, Graphpad Software, USA). The series resistance was <10 MΩ and to minimize voltage errors was compensated to 60-80%. All measurements were performed at 24-25°C. The temperature was adjusted with a water-cooled Peltier device placed at the inlet of the chamber and controlled by a feedback device (Automatic Temperature Controller TC-324B, Warner Instruments). Cold-sensitivity was investigated with a temperature decrease to 16-18 °C. page 44: Figure 1S. […] A) […] compound 41 (blue line). Pre-application of compound (20 s) was followed by coapplication with 500 […] 41. […] C) […] Pre-application of […] Voltage was held at -60 mV for all the experiments. […] (1 picture or pasted object on this page, not shown here)

Kv1.1 = Kv1.1 (Homo sapiens, UniProt Q09470); test: Whole-cell patch clamp in cells expressing Kv1.1
Description: as §1, with “The temperature was adjusted with a water-cooled Peltier device placed at the inlet of the chamber and controlled by a feedback device (Automatic Temperature Controller TC-324B, Warner Instruments). Cold-sensitivity was investigated with a temperature decrease to 16–18 °C.” left out

NaV1.6 = NaV1.6 (Homo sapiens, UniProt Q9UQD0); test: Whole-cell patch clamp in cells expressing NaV1.6
Description: as §1, with “The temperature was adjusted with a water-cooled Peltier device placed at the inlet of the chamber and controlled by a feedback device (Automatic Temperature Controller TC-324B, Warner Instruments). Cold-sensitivity was investigated with a temperature decrease to 16–18 °C.” left out

Sequence of TRPA1 (O75762 whole entry, species assumed): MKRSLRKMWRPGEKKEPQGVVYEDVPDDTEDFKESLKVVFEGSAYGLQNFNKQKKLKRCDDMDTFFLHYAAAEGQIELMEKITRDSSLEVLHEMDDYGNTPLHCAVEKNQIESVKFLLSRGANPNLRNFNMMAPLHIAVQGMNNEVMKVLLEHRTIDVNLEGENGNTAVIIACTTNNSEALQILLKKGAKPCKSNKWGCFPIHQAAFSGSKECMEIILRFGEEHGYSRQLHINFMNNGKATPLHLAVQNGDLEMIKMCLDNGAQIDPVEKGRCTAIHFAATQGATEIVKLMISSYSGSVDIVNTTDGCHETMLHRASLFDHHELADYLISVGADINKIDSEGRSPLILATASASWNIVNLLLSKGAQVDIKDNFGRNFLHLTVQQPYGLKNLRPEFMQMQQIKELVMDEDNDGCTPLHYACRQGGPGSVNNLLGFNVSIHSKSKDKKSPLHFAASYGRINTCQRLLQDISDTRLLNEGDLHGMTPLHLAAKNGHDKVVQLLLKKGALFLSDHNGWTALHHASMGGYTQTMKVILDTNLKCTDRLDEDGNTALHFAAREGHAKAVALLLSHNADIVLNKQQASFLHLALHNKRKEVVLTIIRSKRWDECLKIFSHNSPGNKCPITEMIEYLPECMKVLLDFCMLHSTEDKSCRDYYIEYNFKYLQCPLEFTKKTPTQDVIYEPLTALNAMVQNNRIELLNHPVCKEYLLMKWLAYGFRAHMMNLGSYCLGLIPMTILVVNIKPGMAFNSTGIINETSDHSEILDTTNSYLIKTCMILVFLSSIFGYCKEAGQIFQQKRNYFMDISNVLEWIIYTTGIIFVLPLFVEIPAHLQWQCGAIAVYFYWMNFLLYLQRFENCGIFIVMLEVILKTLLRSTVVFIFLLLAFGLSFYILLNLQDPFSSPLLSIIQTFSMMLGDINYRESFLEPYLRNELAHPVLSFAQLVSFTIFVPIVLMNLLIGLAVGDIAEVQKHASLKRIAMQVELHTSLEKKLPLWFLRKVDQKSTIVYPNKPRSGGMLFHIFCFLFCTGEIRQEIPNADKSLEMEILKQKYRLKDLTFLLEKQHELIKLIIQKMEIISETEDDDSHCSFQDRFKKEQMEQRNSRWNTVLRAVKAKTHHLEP
T1 sequence (Q8R455 whole entry): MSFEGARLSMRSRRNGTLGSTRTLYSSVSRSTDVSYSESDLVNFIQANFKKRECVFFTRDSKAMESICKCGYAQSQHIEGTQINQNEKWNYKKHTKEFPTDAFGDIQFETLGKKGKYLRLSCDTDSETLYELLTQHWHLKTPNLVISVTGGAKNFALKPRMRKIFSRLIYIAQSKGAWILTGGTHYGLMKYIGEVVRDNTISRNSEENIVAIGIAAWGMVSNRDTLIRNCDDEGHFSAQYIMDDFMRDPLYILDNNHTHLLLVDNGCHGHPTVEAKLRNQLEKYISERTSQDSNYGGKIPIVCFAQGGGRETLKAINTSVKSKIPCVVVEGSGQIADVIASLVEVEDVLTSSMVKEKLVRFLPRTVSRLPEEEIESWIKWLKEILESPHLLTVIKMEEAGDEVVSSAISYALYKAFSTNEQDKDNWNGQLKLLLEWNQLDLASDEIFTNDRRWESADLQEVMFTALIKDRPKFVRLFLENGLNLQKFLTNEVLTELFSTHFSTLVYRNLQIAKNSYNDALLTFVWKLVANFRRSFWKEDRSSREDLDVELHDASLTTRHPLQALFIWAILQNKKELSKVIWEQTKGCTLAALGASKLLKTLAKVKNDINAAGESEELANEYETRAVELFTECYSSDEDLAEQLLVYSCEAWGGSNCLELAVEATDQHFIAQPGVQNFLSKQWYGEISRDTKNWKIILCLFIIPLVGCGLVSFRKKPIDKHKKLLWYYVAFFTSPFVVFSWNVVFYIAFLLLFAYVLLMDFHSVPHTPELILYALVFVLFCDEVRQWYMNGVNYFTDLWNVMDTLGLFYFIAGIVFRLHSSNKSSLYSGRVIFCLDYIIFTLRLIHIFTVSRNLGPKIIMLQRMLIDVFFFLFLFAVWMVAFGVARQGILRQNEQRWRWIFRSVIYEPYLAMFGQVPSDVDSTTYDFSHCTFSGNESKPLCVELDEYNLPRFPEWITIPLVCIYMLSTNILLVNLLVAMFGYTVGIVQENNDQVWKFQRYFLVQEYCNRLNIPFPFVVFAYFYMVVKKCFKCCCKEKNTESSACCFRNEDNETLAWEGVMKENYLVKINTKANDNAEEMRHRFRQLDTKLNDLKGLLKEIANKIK
Sequence of Kv1.1 (Q09470 whole entry): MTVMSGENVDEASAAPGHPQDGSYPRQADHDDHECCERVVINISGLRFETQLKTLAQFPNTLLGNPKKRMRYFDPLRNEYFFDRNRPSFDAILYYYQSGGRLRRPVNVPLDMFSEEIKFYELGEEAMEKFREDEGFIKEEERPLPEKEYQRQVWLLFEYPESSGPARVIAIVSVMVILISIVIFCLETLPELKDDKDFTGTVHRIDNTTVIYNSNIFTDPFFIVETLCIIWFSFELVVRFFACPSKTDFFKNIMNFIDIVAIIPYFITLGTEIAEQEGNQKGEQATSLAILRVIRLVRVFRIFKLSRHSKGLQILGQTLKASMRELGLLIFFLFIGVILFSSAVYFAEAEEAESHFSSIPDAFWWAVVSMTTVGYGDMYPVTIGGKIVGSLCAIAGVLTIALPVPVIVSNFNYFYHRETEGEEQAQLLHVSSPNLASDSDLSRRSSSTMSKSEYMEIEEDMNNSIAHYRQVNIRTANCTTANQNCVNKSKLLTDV
Sequence of NaV1.6 (Q9UQD0 whole entry): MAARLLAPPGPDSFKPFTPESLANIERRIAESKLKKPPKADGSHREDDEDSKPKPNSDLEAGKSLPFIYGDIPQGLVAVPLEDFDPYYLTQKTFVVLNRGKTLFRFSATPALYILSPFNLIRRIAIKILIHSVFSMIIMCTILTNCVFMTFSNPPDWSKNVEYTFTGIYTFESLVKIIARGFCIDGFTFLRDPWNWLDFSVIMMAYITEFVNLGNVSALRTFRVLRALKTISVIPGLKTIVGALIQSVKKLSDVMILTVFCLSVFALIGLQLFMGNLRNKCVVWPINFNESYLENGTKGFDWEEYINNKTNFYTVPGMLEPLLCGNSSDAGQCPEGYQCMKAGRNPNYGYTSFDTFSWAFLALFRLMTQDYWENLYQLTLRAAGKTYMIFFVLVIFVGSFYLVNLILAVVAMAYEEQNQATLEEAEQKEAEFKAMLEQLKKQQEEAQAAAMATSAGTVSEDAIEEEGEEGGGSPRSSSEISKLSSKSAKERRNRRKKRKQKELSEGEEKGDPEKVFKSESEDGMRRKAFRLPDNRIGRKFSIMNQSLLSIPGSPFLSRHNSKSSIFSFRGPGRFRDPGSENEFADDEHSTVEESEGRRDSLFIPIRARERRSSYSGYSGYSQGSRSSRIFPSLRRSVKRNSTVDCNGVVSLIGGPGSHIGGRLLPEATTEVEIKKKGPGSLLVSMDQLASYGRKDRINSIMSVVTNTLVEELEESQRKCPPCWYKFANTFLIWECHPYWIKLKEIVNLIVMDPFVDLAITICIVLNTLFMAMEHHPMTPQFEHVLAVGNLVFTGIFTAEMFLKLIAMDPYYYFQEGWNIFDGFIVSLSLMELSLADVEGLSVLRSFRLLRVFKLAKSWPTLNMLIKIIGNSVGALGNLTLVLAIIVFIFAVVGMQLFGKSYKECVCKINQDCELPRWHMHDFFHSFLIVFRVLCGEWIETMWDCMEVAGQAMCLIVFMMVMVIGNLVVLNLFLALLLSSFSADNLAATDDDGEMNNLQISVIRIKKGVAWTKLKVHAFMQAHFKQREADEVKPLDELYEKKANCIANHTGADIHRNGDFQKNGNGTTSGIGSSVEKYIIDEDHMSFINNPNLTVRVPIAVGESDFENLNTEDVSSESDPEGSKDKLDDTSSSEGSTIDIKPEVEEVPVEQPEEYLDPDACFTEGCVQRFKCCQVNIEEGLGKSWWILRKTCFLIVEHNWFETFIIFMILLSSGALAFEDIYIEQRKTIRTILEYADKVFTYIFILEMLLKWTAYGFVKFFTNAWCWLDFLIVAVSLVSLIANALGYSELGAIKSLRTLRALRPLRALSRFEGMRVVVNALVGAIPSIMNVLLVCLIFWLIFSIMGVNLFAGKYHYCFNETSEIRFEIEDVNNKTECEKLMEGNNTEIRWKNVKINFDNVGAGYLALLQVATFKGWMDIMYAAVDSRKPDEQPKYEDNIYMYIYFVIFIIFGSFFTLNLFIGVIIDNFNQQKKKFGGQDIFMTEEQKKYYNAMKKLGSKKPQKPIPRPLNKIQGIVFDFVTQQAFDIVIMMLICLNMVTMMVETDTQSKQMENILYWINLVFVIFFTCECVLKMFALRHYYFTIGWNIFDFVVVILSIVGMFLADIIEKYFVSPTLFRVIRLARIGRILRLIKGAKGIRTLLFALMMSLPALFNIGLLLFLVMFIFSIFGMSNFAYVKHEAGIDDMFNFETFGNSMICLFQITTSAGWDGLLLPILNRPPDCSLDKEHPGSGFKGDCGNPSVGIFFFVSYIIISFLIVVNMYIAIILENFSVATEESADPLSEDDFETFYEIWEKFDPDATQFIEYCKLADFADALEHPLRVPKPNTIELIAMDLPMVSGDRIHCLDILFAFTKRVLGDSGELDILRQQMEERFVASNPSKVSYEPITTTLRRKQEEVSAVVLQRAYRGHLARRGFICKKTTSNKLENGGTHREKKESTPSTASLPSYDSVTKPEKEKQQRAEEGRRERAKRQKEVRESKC

Row | SMILES | effect on menthol-evoked TRPM8 current at 1 µM (TRPM8; 1 µM compound) | effect on cold-evoked TRPM8 current (TRPM8; 1 µM compound) | reduction of voltage-mediated TRPM8 activity (TRPM8; 1 µM compound, depolarizing voltage +120 mV) [%] | agonist activity (activation) on TRPM8 (TRPM8; 1 µM compound, −60 mV) | reversibility of TRPM8 block (TRPM8; 1 µM, menthol pulse four minutes after removal of compound) | IC50 (TRPM8; −60 mV) | Hill coefficient nH (TRPM8; −60 mV) | IC50 (TRPA1) [nM] | agonist activity (activation) on TRPA1 (TRPA1; 1 µM compound, −60 mV) | IC50 (Kv1.1) [nM] | IC50 (NaV1.6) [nM] | effect on voltage-evoked TRPM8 outward currents (TRPM8; 1 µM compound)
1 | CC(C)(C)OC(=O)N[C@@H](CCN1C(=O)CC1(Cc1ccccc1)C(=O)OCc1ccccc1)C(=O)OCc1ccccc1 (stereo partly shown) [Compound 41, 4R,S-Benzyl-4-benzyloxycarbonyl-1-[(3′S-benzyloxycarbonyl-3-tert-butoxycarbonylamino-3′-benzyloxycarbonyl)prop-1′-yl]-2-oxoazetidine] | almost totally absence of current | significant decrease in the current intensity | 90 ± 2 | did not produce activation | reversible | 46 nM | −1.5 ± 0.3 | > 1000 | did not produce activation | > 1000 | > 1000 | 
2 | CC1C(=O)N(CC[C@H](NC(=O)OC(C)(C)C)C(=O)OCc2ccccc2)C1(Cc1ccccc1)C(=O)OCc1ccccc1 (stereo partly drawn) [Compound 45, 4R,S-Benzyl-4-benzyloxycarbonyl-1-[(3′S-benzyloxycarbonyl-3′-tert-butoxycarbonylamino)prop-1′-yl]-(3R,S)-methyl-2-oxoazetidine] | almost totally absence of current | reduce significantly |  |  |  | 82.9 nM and 83 nM | −1.1 ± 0.2 | > 1000 |  | > 1000 | > 1000 | reduce significantly
